The results in this text go back to ChEMBL document CHEMBL4619745, “Identification of 2-((2,3-dihydrobenzo[b][1,4]dioxin-6-yl)amino)-N-phenylpropanamides as a novel class of potent DprE1 inhibitors” (Bioorg Med Chem Lett, 2020).

Converted amounts (≈) assume the structure as drawn.

A short description of data set [1]: Lipophilicity, log D of the compound at pH 7.4. The class given is physicochemical. To be noted: buffer.
Data set [2] relates to Mycobacterium tuberculosis. Briefly: Antimycobacterial activity against Mycobacterium tuberculosis H37Rv. The class given is functional.
Data set [3] in a line: Inhibition of Mycobacterium tuberculosis DprE1.
The next data set concerns HepG2. Briefly: Cytotoxicity against human HepG2 cells assessed as reduction in cell viability. The class given is cell-based.

Take `COc1ccc(NC(C)C(=O)Nc2ccc(Br)cc2)cc1OC` (centres undefined): the logD (usually lipophilicity at a set pH, counting ionised and neutral species) in data set [1] amounted to 5.2. The lowest concentration to inhibit growth in data set [2] (MIC) was 40 µM (≈ 15.2 µg/mL). Also, in data set [3], the IC50 (usually the midpoint of a concentration-inhibition curve) is 2000 nM and the pIC50 (commonly the negative decadic logarithm of the IC50, by convention in mol/L) amounted to 5.7.
Take `CNC(=O)C(C)Nc1ccc2c(c1)OCCO2` (centres undefined): the MIC (in general, the least concentration at which growth counts as inhibited) in data set [2] is above 125 µM. In data set [3], this molecule registered an IC50 of 31600 nM and a pIC50 of 4.5.
Regarding `CC(Oc1ccc2c(c1)OCCO2)C(=O)Nc1ccc(Br)cc1` (centres undefined), the logD in data set [1] was 6.2. This molecule also yielded an MIC in data set [2] of 12 µM (≈ 4.54 µg/mL). Besides, in data set [3], the IC50 was determined as 200 nM and the pIC50 is listed as 6.7.
The like results for `CC(Nc1ccc2c(c1)OCCO2)C(=O)Nc1ccc2cn[nH]c2c1` (centres undefined) were, in that order, 3, 31 µM (≈ 10.5 µg/mL), 3980 nM and 5.4.
`CCC(Nc1ccc2c(c1)OCCO2)C(=O)Nc1ccc(Br)cc1` (centres undefined) yielded a logD in data set [1] of 6. In data set [2], this molecule gave an MIC of 62 µM (≈ 24.3 µg/mL). In data set [3], this molecule yielded an IC50 of 3980 nM and a pIC50 of 5.4.
In the case of `CNC(=O)c1ccc(NC(=O)C(C)Nc2ccc3c(c2)OCCO3)cc1` (centres undefined), in data set [1], the logD came to 2.4. Besides, in data set [3], the IC50 is above 100000 nM and the pIC50 is below 4.
Consider `CC(C)C(Nc1ccc2c(c1)OCCO2)C(=O)Nc1ccc(Br)cc1` (centres undefined), for which the logD in data set [1] stood at 6.6. The molecule further displayed an MIC in data set [2] above 125 µM. In data set [3], this molecule had an IC50 of 39800 nM and a negative logarithm of the IC50 (pIC50) of 4.4.
The like results for `CC(Nc1ccc2c(c1)OCCO2)C(=O)Nc1ccccc1` (centres undefined) were, in that order, 4.3, above 125 µM, 63100 nM and 4.2.
In data set [1], `CC(C)(Nc1ccc2c(c1)OCCO2)C(=O)Nc1ccc(Br)cc1` gave a log distribution coefficient (logD) of 6.3. In data set [2], this molecule came in with a minimum inhibitory concentration (MIC) of 4 µM (≈ 1.57 µg/mL). In data set [3], this molecule registered a half-maximal inhibitory concentration (IC50) of 126 nM and a pIC50 of 6.9.
The like results for `CC(Nc1ccc2c(c1)OCCO2)C(=O)Nc1ccc(Br)cn1` (centres undefined) were, in that order, 5.4, 80 µM (≈ 30.3 µg/mL), 6310 nM and 5.2.
In data set [3], `CC(Nc1ccc2c(c1)OCCO2)C(=O)Nc1ccc(C(F)(F)F)cc1` (centres undefined) displayed an IC50 of 126 nM and a pIC50 of 6.9.
`CC(Nc1ccc2c(c1)CCCC2)C(=O)Nc1ccc(Br)cc1` (centres undefined) came in with a logD in data set [1] of 7.7. Besides, inhibition of growth in data set [2] (MIC) required 16 µM (≈ 5.97 µg/mL). For the same molecule, in data set [3], half-maximal inhibition (IC50) was put at 631 nM and the pIC50 is on record as 6.2.
The like results for `CC(Nc1ccc2c(c1)OCCO2)C(=O)Nc1ccc(Cl)cc1` (centres undefined) were, in that order, 5.2, 8 µM (≈ 2.66 µg/mL), 398 nM and 6.4.
In the same order, the values of `CC(Nc1ccc2c(c1)OCCO2)C(=O)Nc1ccc(C#N)cc1` (centres undefined) are 4.2, 31 µM (≈ 10 µg/mL), 2000 nM and 5.7.
In turn, `CC(Nc1ccc2c(c1)OCCO2)C(=O)NC1CCCCC1` (centres undefined) returned a logD in data set [1] of 4.4. Also, the MIC in data set [2] was above 125 µM. In data set [3], this molecule displayed an IC50 of 39800 nM and a pIC50 of 4.4.
In data set [3], `COc1cc(NC(C)C(=O)Nc2ccc(Br)cc2)cc(OC)c1` (centres undefined) came in with an IC50 of 25100 nM and a pIC50 of 4.6.
In data set [1], `CC(Nc1ccc2c(c1)OCCO2)C(=O)Nc1ccc(Br)nc1` (centres undefined) had a logD of 4.2. In data set [2], this molecule displayed an MIC of 32 µM (≈ 12.1 µg/mL). In data set [3], the IC50 is 1590 nM and the pIC50 turned out to be 5.8.
On to `CC(Nc1ccc2c(c1)NC(=O)CO2)C(=O)Nc1ccc(Br)cc1` (centres undefined), for which the pH-dependent lipophilicity (logD) in data set [1] was determined as 4.2. Moreover, in data set [3], the IC50 was above 100000 nM and the pIC50 is reported as below 4.
`O=C1C(Cc2ccc3c(c2)OCCO3)CCN1c1ccc(Br)cc1` (centres undefined) gave a logD in data set [1] of 6. This molecule returned an MIC in data set [2] above 125 µM. Moreover, in data set [3], it took 31600 nM to reach half-maximal inhibition (IC50) and the pIC50 worked out at 4.5.
Consider `CC(Nc1ccc2c(c1)OCCO2)C(=O)N(C)C` (centres undefined), for which, in data set [1], the logD was 2.2. The molecule further registered an MIC in data set [2] above 125 µM. In data set [3], the IC50 is 39800 nM and the pIC50 is recorded as 4.4.
Turning to `C[C@H](Nc1ccc2c(c1)OCCO2)C(=O)Nc1ccc(Br)cc1`, the logD in data set [1] is 5.5. In addition, in data set [2], the MIC was 13 µM (≈ 4.9 µg/mL). For the same molecule, in data set [3], the IC50 stood at 1000 nM and the negative-log IC50 (pIC50) turned out to be 6.
The like results for `CC(Nc1ccc2c(c1)NCCC2)C(=O)Nc1ccc(Br)cc1` (centres undefined) were, in that order, 6, 125 µM (≈ 46.8 µg/mL), 1260 nM and 5.9.
Regarding `CC(Nc1ccc2c(c1)OCCO2)C(=O)Nc1ccc(Br)cc1` (racemic), the IC50 with HepG2 is above 100000 nM. The logD in data set [1] turned out to be 5.5. In data set [2], the MIC worked out at 7.8 µM (≈ 2.94 µg/mL). Further, in data set [3], half-maximal inhibition (IC50) required 63 nM and the pIC50 was 7.2.
Take `CC(Nc1ccc2c(c1)OCCO2)C(=O)Nc1ccc(-c2cnco2)cc1` (centres undefined): the logD in data set [1] stood at 3.7. In data set [3], the 50% inhibitory concentration (IC50) was above 100000 nM and the pIC50 is reported as below 4.
For the molecule `CC(C(=O)Nc1ccc(Br)cc1)N(C)c1ccc2c(c1)OCCO2` (centres undefined), in data set [1], the logD came out at 6.7. In data set [2], this molecule gave an MIC of 2.5 µM (≈ 0.978 µg/mL). Further, in data set [3], half-maximal inhibition (IC50) required 63 nM and the pIC50 was 7.2.
The like results for `CC(Nc1ccc2c(c1)OCCCO2)C(=O)Nc1ccc(Br)cc1` (centres undefined) were, in that order, 5.7, 4 µM (≈ 1.57 µg/mL), 158 nM and 6.8.
In the same order, the values of `CC(Nc1ccc(Br)cc1)C(=O)Nc1ccc2c(c1)OCCO2` (centres undefined) are 5.3, 125 µM (≈ 47.2 µg/mL), 63100 nM and 4.2.
Turning to `NNC(=O)c1ccncc1` [ISONIAZID], the minimum inhibitory concentration (MIC) in data set [2] worked out at 1.8 µM (≈ 0.247 µg/mL).
In turn, `CC(Nc1ccc2c(c1)OCCO2)C(=O)Nc1ccc2cc[nH]c2c1` (centres undefined) gave a logD in data set [1] of 4. This molecule also showed a minimum inhibitory concentration (MIC) in data set [2] of 32 µM (≈ 10.8 µg/mL). In data set [3], this molecule came in with an IC50 of 794 nM and a pIC50 of 6.1.
As to `CC(Cc1ccc2c(c1)OCCO2)C(=O)Nc1ccc(Br)cc1` (centres undefined), the MIC in data set [2] stood at 110 µM (≈ 41.4 µg/mL). In data set [3], this molecule returned an IC50 of 2000 nM and a pIC50 of 5.7.
In data set [1], `CC(Nc1ccc2c(c1)OCCO2)C(=O)Nc1ccc(-c2cccnc2)cc1` (centres undefined) registered a logD of 4.2. In data set [3], the IC50 is above 100000 nM and the pIC50 is below 4.
As for `CC(Nc1ccc2c(c1)OCCO2)C(=O)Nc1nc2ccccc2[nH]1` (centres undefined), the pH-dependent lipophilicity (logD) in data set [1] is 3.7. The MIC in data set [2] was determined as 62 µM (≈ 21 µg/mL). Also, in data set [3], half-maximal inhibition (IC50) required 3980 nM and the pIC50 was determined as 5.4.
For `CC(Nc1ccc2c(c1)OCC(=O)N2)C(=O)Nc1ccc(Br)cc1` (centres undefined), the logD in data set [1] worked out at 3.9. Moreover, in data set [3], the IC50 is above 100000 nM and the pIC50 is reported as below 4.
Regarding `CC(Nc1cnc2c(c1)OCCO2)C(=O)Nc1ccc(Br)cc1` (centres undefined), the logD in data set [1] amounted to 4. In data set [2], the MIC stood at 62 µM (≈ 23.5 µg/mL). In data set [3], this molecule gave an IC50 of 2000 nM and a negative-log IC50 (pIC50) of 5.7.
`CC(Nc1ccc2c(c1)OCO2)C(=O)Nc1ccc(Br)cc1` (centres undefined): in data set [3], half-maximal inhibition (IC50) was put at 1000 nM and the pIC50 is 6.
For `CC(Nc1ccc2c(c1)NCCO2)C(=O)Nc1ccc(Br)cc1` (centres undefined), the logD in data set [1] is 4.8. The molecule also showed an MIC in data set [2] above 125 µM. In data set [3], this molecule gave an IC50 of 2510 nM and a negative logarithm of the IC50 (pIC50) of 5.6.
The like results for `O=C1C(Cc2ccc3c(c2)OCCO3)CCCN1c1ccc(Br)cc1` (centres undefined) were, in that order, 5.8, 110 µM (≈ 44.3 µg/mL), 63100 nM and 4.2.
`Cc1ccc(NC(=O)C(C)Nc2ccc3c(c2)OCCO3)cc1` (centres undefined) had a logD in data set [1] of 4.8. Also, the lowest concentration to inhibit growth in data set [2] (MIC) was 125 µM (≈ 39 µg/mL). Moreover, in data set [3], the midpoint of inhibition, the IC50, lay at 15800 nM and the pIC50 turned out to be 4.8.
On to `C[C@@H](Nc1ccc2c(c1)OCCO2)C(=O)Nc1ccc(Br)cc1`, for which, in data set [1], the logD amounted to 5.5. This molecule showed an MIC in data set [2] of 6.5 µM (≈ 2.45 µg/mL). For the same molecule, in data set [3], 251 nM corresponded to half-maximal inhibition (IC50) and the pIC50 turned out to be 6.6.
`COc1cccc(NC(C)C(=O)Nc2ccc(Br)cc2)c1` (centres undefined): in data set [3], half-maximal inhibition (IC50) was put at 1590 nM and the pIC50 was found to be 5.8.
Regarding `O=C(CNc1ccc2c(c1)OCCO2)Nc1ccc(Br)cc1`, the logD in data set [1] stood at 5.1. Further, in data set [2], the minimal inhibitory concentration (MIC) came out at 16 µM (≈ 5.81 µg/mL). In data set [3], this molecule showed an IC50 of 200 nM and a pIC50 of 6.7.
In data set [3], `CC(Nc1ccc(Br)cc1)C(=O)Nc1ccc(Br)cc1` (centres undefined) returned an IC50 of 3980 nM and a pIC50 of 5.4.
